The target of one data set is human A3 receptors (Homo sapiens (Human), UniProt P0DMS8). Nature of the data set: A3 adenosine receptor competition radioligand binding assay. The following applies: membranes from human A3 receptors transfected to CHO cells, [3H]-NECA. The procedure:
(§1) Human membranes for recombinant adenosine receptors were purchased from Receptor Biology, Inc. (USA).
A3 Adenosine Receptor Competition Radioligand Binding Assay
Competitive assays were carried out by incubation of membranes from human A3 receptors transfected to CHO cells, [^3H]-NECA, buffer (20 mM HEPES (pH 7.4), 100 mM NaCl, 10 mM MgCl2, 2 units/ml adenosine deaminase), and unlabelled ligand in a total volume of 0.2 ml for 60 min at 25° C. R-PIA was used to determine nonspecific binding. It was filtered over Schleicher & Schuell GF/52 (presoaked with 0.5% polyethyleneimine) in a Brandel cell harvester. The unbound radioligand was removed with 3×250 μl of 20 mM HEPES (pH 7.4), 100 mM NaCl, 10 mM MgCl2.

A further data set has as its target human A2A receptors (Homo sapiens (Human), UniProt P29274). Nature of the data set: A2A adenosine receptor competition radioligand binding assay. The following applies: membranes from human A2A receptors transfected to HeLa cells, [3H]-ZM241385. The procedure:
as §1
A2A Adenosine Receptor Competition Radioligand Binding Assay
Competitive assays were carried out by incubation of membranes from human A2A receptors transfected to HeLa cells, [^3H]-ZM241385, buffer (Tris-HCl 50 mM (pH=7.4), 10 mM MgCl2, EDTA 1 mM and 2 units/ml adenosine deaminase), and unlabelled ligand in a total volume of 0.2 ml for 60 min at 25° C. NECA was used to determine nonspecific binding. It was filtered over Schleicher & Schuell GF/52 (presoaked with 0.5% polyethyleneimine) in a Brandel cell harvester. The unbound radioligand was removed with 3×250 μl of 20 mM Tris-HCl 50 mM (pH=7.4), 10 mM MgCl2, EDTA 1 mM.

The target of another data set is adenosine A2B receptor (Homo sapiens (Human), UniProt P29275). The experiment in a line: A2B adenosine receptor competition radioligand binding assay. The following applies: human recombinant source (HEK-293 cells), [3H]DPCPX. The procedure: A2B Adenosine Receptor Competition Radioligand Binding Assay
The binding assay for adenosine A2B receptor subtype was carried out on human recombinant source (HEK-293 cells) and [^3H]DPCPX as radioligand, according to assay disclosed by Fredholm et al. (International Union of Pharmacology. XXV. Nomenclature and classification of adenosine receptors, Pharmacol Rev. 2001 December; 53(4):527-52).

The next data set addresses hA1 receptors (Homo sapiens (Human), UniProt P30542). Nature of the data set: Adenosine A1 receptor subtype competition radioligand binding assay. Particulars: hA1 receptors transfected to CHO cells, [3H]DPCPX. As for the experimental part: as §1
Adenosine A1 Receptor Subtype Competition Radioligand Binding Assay
Competition assays were carried out by incubation of human recombinant membranes of adenosine receptors (Receptor Biology, Inc.) from hA1 receptors transfected to CHO cells, [^3H] DPCPX as radioligand, buffer (HEPES 20 mM (pH=7.4), 10 mM MgCl2, 100 mM NaCl, 2 U/mL of deaminase adenosine and non-labelled ligand in a total volume of 0.2 mL for 90 min at 25° C. R-PIA was used to determinate non-specific binding. Filter over Schleicher & Schuell GF/52 (pre-soaked 0.5% polyethylenimine) in a Brandel cell harvester. Unbound radioligand was removed with HEPES 30 mM (3×250 μl), NaCl (100 mM) and MgCl2 (10 mM).

Another data set has as its target A3AR receptor (Homo sapiens (Human), UniProt P0DMS8). The following applies: read-out: affinity on the A3AR receptor (IC50); cited from earlier work.
Data set [1] deals with rheumatoid arthritis (RA) patients. The following applies: oral administration twice daily for 12 weeks; cited from earlier work.
Data set [2] deals with experimental autoimmune uveitis. Particulars: experimental autoimmune uveitis model; cited from earlier work.

SMILES strings stand for the structures. pIC50: −log10 of the molar value.

human A2A receptors, sequence (P29274 whole entry): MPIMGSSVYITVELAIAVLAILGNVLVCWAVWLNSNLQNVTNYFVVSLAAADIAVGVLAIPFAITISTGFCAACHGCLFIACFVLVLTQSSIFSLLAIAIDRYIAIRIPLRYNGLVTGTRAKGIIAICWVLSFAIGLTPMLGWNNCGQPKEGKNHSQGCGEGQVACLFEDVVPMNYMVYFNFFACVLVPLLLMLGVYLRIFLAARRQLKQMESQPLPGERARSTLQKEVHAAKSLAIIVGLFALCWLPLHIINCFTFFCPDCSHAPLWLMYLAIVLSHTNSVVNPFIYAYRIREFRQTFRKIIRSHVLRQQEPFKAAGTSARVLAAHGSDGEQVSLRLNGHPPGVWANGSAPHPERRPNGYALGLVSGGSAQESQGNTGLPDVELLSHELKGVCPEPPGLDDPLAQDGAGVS
human A3 receptors, sequence (P0DMS8 whole entry): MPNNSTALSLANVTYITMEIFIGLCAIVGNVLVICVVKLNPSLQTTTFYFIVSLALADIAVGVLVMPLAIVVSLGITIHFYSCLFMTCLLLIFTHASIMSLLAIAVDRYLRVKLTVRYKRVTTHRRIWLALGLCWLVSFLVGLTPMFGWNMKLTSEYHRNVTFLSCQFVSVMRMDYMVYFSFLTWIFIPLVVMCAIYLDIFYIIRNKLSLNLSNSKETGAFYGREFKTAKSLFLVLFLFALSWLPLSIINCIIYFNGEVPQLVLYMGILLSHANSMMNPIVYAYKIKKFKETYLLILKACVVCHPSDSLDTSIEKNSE
adenosine A2B receptor, sequence (P29275 whole entry): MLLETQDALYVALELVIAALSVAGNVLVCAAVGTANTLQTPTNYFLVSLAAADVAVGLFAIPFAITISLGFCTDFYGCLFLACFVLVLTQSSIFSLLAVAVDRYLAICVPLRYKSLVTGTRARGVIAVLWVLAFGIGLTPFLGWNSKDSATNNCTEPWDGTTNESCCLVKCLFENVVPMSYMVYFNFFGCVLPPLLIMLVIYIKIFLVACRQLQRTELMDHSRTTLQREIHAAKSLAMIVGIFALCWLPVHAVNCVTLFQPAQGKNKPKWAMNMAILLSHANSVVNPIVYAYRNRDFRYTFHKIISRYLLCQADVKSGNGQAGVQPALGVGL
hA1 receptors, sequence (P30542 whole entry): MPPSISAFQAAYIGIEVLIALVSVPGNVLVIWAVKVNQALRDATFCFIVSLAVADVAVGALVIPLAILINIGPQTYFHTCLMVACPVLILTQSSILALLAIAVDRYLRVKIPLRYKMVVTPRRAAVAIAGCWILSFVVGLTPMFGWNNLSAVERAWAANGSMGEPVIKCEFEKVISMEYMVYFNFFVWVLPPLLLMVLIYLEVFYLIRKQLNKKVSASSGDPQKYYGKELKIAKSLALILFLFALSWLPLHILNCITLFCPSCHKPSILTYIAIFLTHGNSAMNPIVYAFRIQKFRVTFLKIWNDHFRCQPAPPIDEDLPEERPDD
A3AR receptor, sequence (P0DMS8 whole entry): as the sequence (P0DMS8 whole entry) above

As usually defined, the Ki is the equilibrium dissociation constant of an inhibitor or competing ligand from its target. On to `N#Cc1sc(NC(=O)c2ccc(N3CCC(C(=O)O)CC3)nc2)nc1-c1ccccc1` [Example 1, 1-(5-(5-cyano-4-phenylthiazol-2-ylcarbamoyl)pyridin-2-yl) piperidine-4-carboxylic Acid], for which the inhibition constant Ki on human A3 receptors was 103 nM; at human A2A receptors, greater than 1000 nM; on adenosine A2B receptor it was greater than 500 nM; on hA1 receptors it was greater than 500 nM.
Turning to `COc1cccc(-c2nc(NC(=O)c3ccc(N4CCC(C(=O)O)CC4)nc3)sc2C#N)c1` [Example 3, 1-(5-((5-cyano-4-(3-methoxyphenyl)thiazol-2-yl)carbamoyl)pyridin-2-yl) piperidine-4-carboxylic Acid], the Ki is 65.5 nM on human A3 receptors, greater than 1000 nM on human A2A receptors, greater than 1000 nM on adenosine A2B receptor and greater than 1000 nM at hA1 receptors.
The term pIC50 denotes the negative decadic logarithm of the IC50, by convention in mol/L. For `COc1cc(Nc2ncc(F)c(Nc3ccc4c(n3)N(COP(=O)(O)O)C(=O)C(C)(C)O4)n2)cc(OC)c1OC` [fostamatinib], on A3AR receptor, the pIC50 was 7.09.
On to `N#Cc1sc(NC(=O)c2ccc(N3CCC(C(=O)O)CC3)nc2)nc1-c1ccccc1F` [Example 5, 1-(5-((5-cyano-4-(2-fluorophenyl)thiazol-2-yl)carbamoyl)pyridin-2-yl) piperidine-4-carboxylic Acid], for which the inhibition constant Ki was 26.3 nM at human A3 receptors, greater than 1000 nM on human A2A receptors, greater than 500 nM on adenosine A2B receptor and greater than 500 nM on hA1 receptors.
For the molecule `CNC(=O)[C@H]1O[C@@H](n2cnc3c(NCc4cccc(I)c4)ncnc32)[C@H](O)[C@@H]1O` [IB-MECA, 1-deoxy-1-[6-[((3-iodophenyl)methyl)amino]-9H-purin-9-yl]-N-methyl-β-D-ribofuranuronamide], in data set [1], the “effect on disease signs and symptoms” value is “able to mediate an improvement of disease signs and symptoms”; the safety and tolerability result was “safe, well tolerated”. For the same molecule, the “effect on manifestations of uveitis” value in data set [2] was “inhibited the clinical and pathological manifestations of uveitis”.
With `N#Cc1sc(NC(=O)c2ccc(N3CCC(C(=O)O)CC3)nc2)nc1-c1cccc(F)c1` [Example 6, 1-(5-((5-cyano-4-(3-fluorophenyl)thiazol-2-yl)carbamoyl)pyridin-2-yl) piperidine-4-carboxylic Acid], the inhibition constant (Ki) on human A3 receptors was 50.3 nM; at human A2A receptors it was greater than 1000 nM; on adenosine A2B receptor it was greater than 1000 nM; at hA1 receptors it was greater than 1000 nM.
In the case of `N#Cc1sc(NC(=O)c2ccc(N3CCC(C(=O)O)CC3)nc2)nc1-c1cccs1` [Example 14, 1-(5-(5-cyano-4-(thiophen-2-yl)thiazol-2-ylcarbamoyl)pyridin-2-yl) piperidine-4-carboxylic Acid], the inhibition constant Ki at human A3 receptors was 29.2 nM; on human A2A receptors, greater than 500 nM; on adenosine A2B receptor it was greater than 1000 nM; at hA1 receptors it was greater than 500 nM.

(Values after US10744125B2, “Adenosine A3 receptor modulators” (Palobiofarma, S.L., priority 2017, dated 2020).)
